Assay results published in US20160169918A1, “Methods of Diagnosis and Treatment for Pulmonary Arterial Hypertension” (THE REGENTS OF THE UNIVERSITY OF CALIFORNIA, priority 2013, published 2016).
Blank lines part the entries; values can stand above or below the molecule they belong to.

Experiments:
[1] = system: smooth muscle cell; details: after serum stimulation; cited from earlier work
[2] = molecular target: T1, adenosine 2B receptor (A2BR) (Homo sapiens, UniProt P29275); test: cAMP accumulation in response to receptor agonist (cAMP radioimmunoassay) in Ctrl-PASMCs; assay type: cell-based; details: agonist 1 μM, 10 min treatment
T1 sequence (P29275 1-332): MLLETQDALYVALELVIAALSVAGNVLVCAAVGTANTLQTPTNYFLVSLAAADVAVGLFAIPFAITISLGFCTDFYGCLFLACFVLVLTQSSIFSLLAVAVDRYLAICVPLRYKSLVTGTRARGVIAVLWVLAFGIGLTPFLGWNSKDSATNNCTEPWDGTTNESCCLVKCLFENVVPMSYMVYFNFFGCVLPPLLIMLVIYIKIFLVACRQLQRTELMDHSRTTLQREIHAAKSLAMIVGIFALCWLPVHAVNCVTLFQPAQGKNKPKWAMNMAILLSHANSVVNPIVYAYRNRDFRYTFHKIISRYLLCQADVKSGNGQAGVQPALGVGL
Experimental: (§1) Control-PASMCs, PAH-PASMCs or HEK 293 cells were seeded at 30,000 cells/well in a 24-well plate. […] 10 uM FSK (alone) was used as a positive control. After the incubations, the media was aspirated and 150 μL of 7.5% trichloroacetic acid (TCA) was added to each well.
(§2) Assay tubes were filled with 1 mL of 10 mM sodium acetate buffer (pH 4.75) and a standard curve was constructed by serial dilution of stock 5 μM cAMP (Millipore, Billerica, Mass.). An appropriate amount of sample was added to the assay tubes and the samples were acetylated by addition of 20 μL triethylamine (Sigma) and 10 μl acetic anhydride (Sigma). 100 μL of the sodium acetate buffer was added to each well of a 96-well filter plate to prepare the plate and then was removed by vacuum. 50 μL of diluted, acetylated sample was added to each well along with 25 μL diluted antibody [1:1000, 6 μL primary cAMP antibody (Millipore) in 6 mL γ-globulin buffer (100 mg human γ-globulin/100 mL 50 mM NaAc pH 4.75)] and 25 μL diluted ^125I radioactivity [16 acetylated adenosine 3′,5′-cyclic phosphoric acid, 2′-O-succinyl [^125I]-iodotyrosine methyl ester (PerkinElmer) in 3 mL γ-globulin buffer so that 0.001 mCi of ^125I could be added to each sample. The 96-well filter plate containing the sample was incubated overnight at 4° C. […]

[3] = system: Adult Sprague-Dawley rats; test: monocrotaline-treated rat model, right ventricular hypertrophy (Fulton Index); details: MCT 60 mg/kg once intraperitoneally, 2 weeks, control rats 0.20
Experimental: Adult Sprague-Dawley rats (250-300 g, male) were injected once intraperitoneally with MCT (60 mg/kg) and sacrificed 2 weeks later. Right ventricular hypertrophy was assessed to determine the development of PAH. It was evaluated as the ratio of the weight of the right ventricle to that of the left ventricle plus the septum (Fulton Index). […] This model is commonly used and approved as a valid model of PAH.^42,43 All animals were cared for in compliance with the guiding principles and approved by the UCSD Institutional Animal Care and Use Committee.

[4] = system: GPR75; details: cited from earlier work
[5] = molecular target: prostaglandin E2 receptor (EP2R) (Homo sapiens, UniProt P43116); test: cAMP accumulation in response to receptor agonist (cAMP radioimmunoassay) in Ctrl-PASMCs; details: agonist 1 μM, 10 min treatment
Experimental: as §1, §2

[6] = molecular target: prostacyclin receptor (IPR) (Homo sapiens, UniProt P43119); test: as above; assay type: cell-based; details: agonist 10 μM, 10 min treatment
Experimental: as §1, §2

[7] = system: Ctrl-PASMCs; test: [3H]thymidine incorporation (DNA synthesis, proliferation) of PASMCs with GPCR agonists; assay type: cell-based, human
Experimental: GPCR agonists/antagonists/GPR75 antibody in the absence or presence of 200 μM IBMX and [^3H] thymidine (1 μCi/ml) were added to the cells for 24-48 hr. Following incubation, cells were washed with a large volume of cold phosphate buffer saline (PBS) and then twice with a large volume of cold 7.5% TCA. The precipitated material was dissolved with 0.5 M NaOH and combined with 3 mL of scintillation fluid (Ecoscint O, National Diagnostics) and radioactivity was determined using a liquid scintillation counter (Beckman Coulter LS 1801).

[8] = molecular target: T2, oxytocin receptor (Homo sapiens, UniProt P30559); test: forskolin-stimulated cAMP levels in Ctrl-PASMCs with oxytocin; assay type: cell-based; details: 0.1 nM-10 μM, 10 min, FIG. 4D
T2 construct: the oxytocin receptor is expressed on the membrane of Ctrl-PASMCs; endogenous in cells; host or cells: Ctrl-PASMCs (primary human pulmonary artery smooth muscle cells)
T2 sequence (P30559 1-389): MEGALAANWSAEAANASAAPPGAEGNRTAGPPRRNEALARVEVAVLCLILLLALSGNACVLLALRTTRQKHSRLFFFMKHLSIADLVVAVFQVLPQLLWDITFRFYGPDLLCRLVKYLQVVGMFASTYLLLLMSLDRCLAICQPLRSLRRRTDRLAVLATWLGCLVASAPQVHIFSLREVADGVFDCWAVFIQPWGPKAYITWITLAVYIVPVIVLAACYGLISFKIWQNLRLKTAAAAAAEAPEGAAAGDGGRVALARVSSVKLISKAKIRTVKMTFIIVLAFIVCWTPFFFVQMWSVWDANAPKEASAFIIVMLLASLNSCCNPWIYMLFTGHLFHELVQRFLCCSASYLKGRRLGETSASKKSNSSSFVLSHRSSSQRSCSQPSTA
Experimental: as §1, §2

[9] = oxytocin 0.2 units/kg; cited from earlier work
[10] = molecular target: gastric inhibitory polypeptide receptor (human) (UniProt P48546); test: cell-based or functional assay
[11] = molecular target: T3, gastric inhibitory polypeptide receptor (GIPR) (Homo sapiens, UniProt P48546); test: cAMP accumulation in response to receptor agonist (cAMP radioimmunoassay) in Ctrl-PASMCs; details: agonist 1 μM, 10 min treatment
T3 sequence (P48546 22-466): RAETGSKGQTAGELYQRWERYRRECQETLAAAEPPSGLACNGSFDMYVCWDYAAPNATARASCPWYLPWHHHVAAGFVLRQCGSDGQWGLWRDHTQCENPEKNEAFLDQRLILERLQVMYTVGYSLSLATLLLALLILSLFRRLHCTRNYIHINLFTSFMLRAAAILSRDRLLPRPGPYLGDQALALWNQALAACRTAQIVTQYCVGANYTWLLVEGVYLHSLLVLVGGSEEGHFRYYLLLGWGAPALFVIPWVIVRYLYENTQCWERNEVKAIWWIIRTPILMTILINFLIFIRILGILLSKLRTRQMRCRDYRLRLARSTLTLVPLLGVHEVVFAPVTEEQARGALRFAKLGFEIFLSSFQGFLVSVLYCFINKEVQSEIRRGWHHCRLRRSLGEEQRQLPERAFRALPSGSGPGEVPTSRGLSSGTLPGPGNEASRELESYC
Experimental: as §1, §2

[12] = system: human PASMCs; details: cited from earlier work
[13] = system: PAH-patients; details: chronic inhalation; n=8 PAH-patients; cited from earlier work
[14] = molecular target: vasoactive intestinal peptide receptor 1 (human) (UniProt P32241); test: cell-based or functional assay
[15] = HEK293 cells overexpressing GPR75

Chain of vasoactive intestinal peptide receptor 1 (human) (P32241 31-457): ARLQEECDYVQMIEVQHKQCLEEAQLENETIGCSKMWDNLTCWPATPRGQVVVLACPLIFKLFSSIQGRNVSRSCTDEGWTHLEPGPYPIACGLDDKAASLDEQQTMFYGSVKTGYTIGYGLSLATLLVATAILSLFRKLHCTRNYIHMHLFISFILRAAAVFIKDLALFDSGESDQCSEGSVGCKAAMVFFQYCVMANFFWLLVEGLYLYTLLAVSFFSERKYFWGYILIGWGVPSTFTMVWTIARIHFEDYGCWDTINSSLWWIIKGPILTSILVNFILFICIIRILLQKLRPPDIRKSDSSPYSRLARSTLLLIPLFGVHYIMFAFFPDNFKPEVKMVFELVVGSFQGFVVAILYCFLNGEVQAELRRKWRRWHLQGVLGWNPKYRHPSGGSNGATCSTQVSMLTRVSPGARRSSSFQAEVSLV
Chain of prostaglandin E2 receptor (EP2R) (P43116 whole entry): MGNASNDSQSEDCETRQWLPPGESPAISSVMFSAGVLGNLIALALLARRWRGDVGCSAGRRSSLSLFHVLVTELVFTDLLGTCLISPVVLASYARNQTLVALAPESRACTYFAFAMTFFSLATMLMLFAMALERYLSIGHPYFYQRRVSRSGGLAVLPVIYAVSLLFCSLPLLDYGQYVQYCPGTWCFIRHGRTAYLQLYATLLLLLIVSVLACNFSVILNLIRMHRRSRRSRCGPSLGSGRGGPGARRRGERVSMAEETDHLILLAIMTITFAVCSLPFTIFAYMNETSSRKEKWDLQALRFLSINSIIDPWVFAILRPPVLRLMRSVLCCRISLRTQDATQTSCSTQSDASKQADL
Chain of prostacyclin receptor (IPR) (P43119 whole entry): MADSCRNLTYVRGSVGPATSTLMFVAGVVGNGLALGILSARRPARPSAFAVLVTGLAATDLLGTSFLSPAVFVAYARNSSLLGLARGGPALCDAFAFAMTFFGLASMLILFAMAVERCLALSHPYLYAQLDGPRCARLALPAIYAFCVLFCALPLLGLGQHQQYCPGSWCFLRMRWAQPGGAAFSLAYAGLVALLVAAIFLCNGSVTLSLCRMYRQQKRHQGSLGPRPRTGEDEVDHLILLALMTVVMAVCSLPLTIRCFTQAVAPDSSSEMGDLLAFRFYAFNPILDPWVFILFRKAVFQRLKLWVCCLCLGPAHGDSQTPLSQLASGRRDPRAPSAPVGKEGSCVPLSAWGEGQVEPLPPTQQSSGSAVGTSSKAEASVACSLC

Molecule: Nc1ncnc2c1nc(Br)n2[C@@H]1O[C@@H]2COP(=O)(O)O[C@H]2[C@H]1O [8Br-cAMP]
percentage of cells in the S phase of the cell cycle [1]: reduced

Molecule: Nc1nc(Nc2ccccc2)nc2c1ncn2[C@@H]1O[C@H](CO)[C@@H](O)[C@H]1O [CV1808]
cAMP accumulation [2]: 0.6 fmol cAMP/cell/10 min

Molecule: C[C@H]1C(=O)O[C@@H]2CCN3CC=C(COC(=O)[C@](C)(O)[C@]1(C)O)[C@H]23 [MCT, Monocrotaline]
Fulton Index (weight of right ventricle / left ventricle plus septum) [3]: 0.34

Molecule: COc1ccc2c(c1)CC[C@@H]1[C@@H]2CC[C@]2(C)[C@@H](NCCCCCCN3C(=O)C=CC3=O)CC[C@@H]12 [U73122]
RANTES-mediated increase in Ca2+ mobilization ([4]; GPR75-HEK293 cells, PLC inhibitor): block

cAMP accumulation [5]: 0.4 fmol cAMP/cell/10 min
Molecule: CCCC1([C@H](O)C/C=C/[C@H]2[C@H](O)CC(=O)[C@@H]2CCCCCCC(=O)OC)CCC1 [butaprost]

cAMP accumulation [6]: 0.4 fmol cAMP/cell/10 min
Molecule: CCCCC[C@H](O)/C=C/[C@@H]1[C@H]2C/C(=C/CCCC(=O)O)O[C@H]2C[C@H]1O [epoprostenol]

cAMP accumulation (forskolin-stimulated) [8]: decreased cAMP accumulation
Molecule: CC[C@H](C)[C@@H]1NC(=O)[C@H](Cc2ccc(O)cc2)NC(=O)[C@@H](N)CSSC[C@@H](C(=O)N2CCC[C@H]2C(=O)N[C@@H](CC(C)C)C(=O)NCC(N)=O)NC(=O)[C@H](CC(N)=O)NC(=O)[C@H](CCC(N)=O)NC1=O [oxytocin]
PASMC proliferation ([7]; 0.1 nM-10 μM, cells in serum free media over 24 hr, FIG. 4D): promoted PASMC proliferation | mean PAP [9]: increases | pulmonary vascular resistance (PVR) [9]: increases

cAMP accumulation (fmol cAMP/cell/10 min treatment with agonist) in Ctrl-PASMCs at 1 µM GIP (fmol cAMP/cell/10 min) [10]: 0.2
Molecule: GIP (from UniProt P09681 52-93) (peptide)

cAMP accumulation [11]: 0.2 fmol cAMP/cell/10 min
Molecule: GIP: receptor agonist used for the gastric inhibitory polypeptide receptor (GIPR)

Molecule: Neuropeptide Y
proliferation of human PASMCs [12]: stimulates proliferation

Molecule: Vasoactive Intestinal Peptide [VIP]
decrease of PASMC proliferation ([7]; 0.1 nM-10 μM VIP, FIG. 4C): roughly 50% | exercise capacity [13]: improve | hemodynamics [13]: improve

cAMP accumulation (fmol cAMP/cell/10 min treatment with agonist) in Ctrl-PASMCs at 1 µM VIP (fmol cAMP/cell/10 min) [14]: 0.2 | decrease in proliferation of PASMCs (0.1 nM-10 µM VIP) [14]: 50%
Molecule: vasoactive intestinal peptide (from UniProt P01282 125-152)

B1: RANTES: Regulated upon Activation, Normal T-cell Expressed, and Secreted chemokine; proposed ligand for GPR75 (protein, UniProt P13501 24-91, looked up)
C-C motif chemokine 5: SPYSSDTTPCCFAYIARPLPRAHIKEYFYTSGKCSNPAVVFVTRKNRQVCANPEKKWVREYINSLEMS
Ca2+ mobilization [4, 15]: stimulation | inositol triphosphate (IP3) [4, 15]: increase
